# Source: patent US4298739A, “Novel carbostyril derivatives” (priority 1977, dated 1981)
# Read-outs that look alike come from different tables or passages of the source.
# Assays:
# [1] = target: T1, cyclic AMP phosphodiesterase (Oryctolagus cuniculus, UniProt G1ST54); experiment: Obstructive action against cyclic AMP phosphodiesterase; format: biochemical, rabbit
# T1 construct: the supernatant was collected to use it as a crude enzyme solution; from tissue; host or cells: rabbit platelets (from platelet-rich plasma), 100,000 xg supernatant, DEAE-cellulose fraction
# T1 sequence (G1ST54 1-1128): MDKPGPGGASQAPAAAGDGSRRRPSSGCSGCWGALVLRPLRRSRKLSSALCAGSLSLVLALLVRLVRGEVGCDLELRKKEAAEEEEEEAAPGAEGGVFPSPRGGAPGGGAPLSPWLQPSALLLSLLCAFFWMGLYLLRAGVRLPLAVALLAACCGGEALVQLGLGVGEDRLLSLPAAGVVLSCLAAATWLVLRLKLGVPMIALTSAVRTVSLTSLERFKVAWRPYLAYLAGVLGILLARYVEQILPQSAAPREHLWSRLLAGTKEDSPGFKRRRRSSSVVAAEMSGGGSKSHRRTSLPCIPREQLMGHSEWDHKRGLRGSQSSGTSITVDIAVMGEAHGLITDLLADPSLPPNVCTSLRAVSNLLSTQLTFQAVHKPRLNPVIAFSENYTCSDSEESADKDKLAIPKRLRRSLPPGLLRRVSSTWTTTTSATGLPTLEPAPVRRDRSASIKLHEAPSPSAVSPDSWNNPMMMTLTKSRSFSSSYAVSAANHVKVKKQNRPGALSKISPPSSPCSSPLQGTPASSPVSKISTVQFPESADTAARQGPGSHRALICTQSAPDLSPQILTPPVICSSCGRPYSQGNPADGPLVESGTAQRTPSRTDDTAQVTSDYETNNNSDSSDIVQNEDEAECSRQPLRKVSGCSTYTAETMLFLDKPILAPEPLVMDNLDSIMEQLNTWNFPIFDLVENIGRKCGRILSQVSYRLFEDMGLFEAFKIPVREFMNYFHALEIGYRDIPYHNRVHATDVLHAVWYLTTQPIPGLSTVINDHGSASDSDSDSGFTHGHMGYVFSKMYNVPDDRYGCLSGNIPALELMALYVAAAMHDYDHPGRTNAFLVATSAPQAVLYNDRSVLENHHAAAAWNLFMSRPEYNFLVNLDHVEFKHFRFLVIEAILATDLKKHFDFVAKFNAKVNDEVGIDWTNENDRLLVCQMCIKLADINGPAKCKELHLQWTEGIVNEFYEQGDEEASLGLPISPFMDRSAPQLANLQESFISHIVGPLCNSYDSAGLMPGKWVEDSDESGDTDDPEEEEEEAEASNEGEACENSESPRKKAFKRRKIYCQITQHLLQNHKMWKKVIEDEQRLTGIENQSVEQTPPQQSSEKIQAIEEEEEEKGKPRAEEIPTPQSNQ
# Experimental: The obstructive action against cyclic AMP phosphodiesterase was measured according to the activity measuring method described in "Biochimica et Biophysica Acta", Vol. 429, pp. 485-497 (1976) and "Biochemical Medicine", Vol. 10, pp. 301-311 (1974).
# That is, for determining the obstructive activity against cyclic AMP phosphodiesterase, 10 ml of a solution obtained by adding 1 mmol of MgCl2 into 50 mmol of tris-hydrochloric acid buffer with pH 7.4 was added to the platelets obtained by further centrifuging the abovesaid rabbit PRP at 3,000 r.p.m. for 10 minutes, and the suspended platelets were ground by a Teflon potter type homogenizer. This was followed by two times of freezing and thawing treatment and 300-second fracturing with 200 watt supersonic waves. After additional 60-minute centrifugation with 100,000 xg, the supernatant was collected to use it as a crude enzyme solution.
# 10 Milliliters of this crude buffer solution was added to a 1.5×20 cm DEAE-cellulose column which has previously been buffered with 50 mmol of tris-acetate buffer (pH 6.0), followed by washing and elution with 30 ml of 50 mmol tris-acetate buffer, and this buffer solution was subjected to linear gradient elution with 0 to 0.5 moles of sodium acetate-tris-acetatebuffer. The flow rate was 0.5 ml/min, and 5 ml of each fraction was batched out. […] This fraction was used as cyclic AMP phosphodiesterase.
# 0.1 Milliliter of an aqueous solution of each test compound of a specified concentration was mixed with 40 mmol of tris-hydrochloric acid buffer (pH 8.0, containing 50 μg of cow serum albumin and 4 mmol of MgCl2) containing predetermined 1.0 μmol of cyclic AMP (tritium cyclic AMP), and 0.2 ml of this mixed solution was used as substrate solution.
# 0.2 Milliliter of the above-prepared cyclic AMP phosphodiesterase of a predetermined concentration was added to said substrate solution and the mixture was reaction at 30° C. for 20 minutes, producing tritium 5'-AMP from the tritium cyclic AMP.
# The reaction system was then immersed in boiling water for 2 minutes to stop the reaction, and then this reaction solution was cooled in ice water and, for converting the produced tritium 5'-AMP into tritium adenosine, the solution was added with 0.05 ml (1 mg/ml) of snake poison as 5'-nucleotidase and reacted at 30° C. for 10 minutes. The whole amount of this reaction solution was then added to a cation exchange resin (AG 500 W×4, 200-400 meshes, manufactured by Bio-Rad Co., column size: 0.5×1.5 cm), and the produced tritium anodesine alone was allowed to combine, washed with 6 ml of distilled water and eluted with 1.5 ml of 3 N-ammonia water. The whole quantity of the elutant was added with 10 ml of a triton-toluene type scintillator and the produced tritium adenosine was measured by a liquid scintillation counter to determine the phosphodiesterase activity.
# In this way, the phosphodiesterase activation value (Vs) of the test compounds of the respective concentrations was determined, and the phosphodiesterase obstruction rate (%) was determined from said activation value (Vs) and control value (Vc) (obtained from water not containing any test compound) from the following formula: [formula]
# [2] = Acute toxicity test, oral administration to mice; format: in vivo; conditions: mouse, in vivo, Male mice
# Experimental: The test compounds were administered orally to the mice and LD50 (mg/kg) of the compounds was determined.
# [3] = pH 8, read-out: phosphodiesterase obstruction rate
SMILES,"inhibition at 10 µM ([1]; 10^-5 mole, 1.0 μmol cyclic AMP, pH 8.0, 30° C., read-out: phosphodiesterase obstruction rate)","inhibition at 1 µM ([1]; 10^-6 mole, 1.0 μmol cyclic AMP, pH 8.0, 30° C., read-out: phosphodiesterase obstruction rate)","inhibition at 0.1 µM ([1]; 10^-7 mole, 1.0 μmol cyclic AMP, pH 8.0, 30° C., read-out: phosphodiesterase obstruction rate)","inhibition at 0.01 µM ([1]; 10^-8 mole, 1.0 μmol cyclic AMP, pH 8.0, 30° C., read-out: phosphodiesterase obstruction rate)","inhibition at 0.001 µM ([1]; 10^-9 mole, 1.0 μmol cyclic AMP, pH 8.0, 30° C., read-out: phosphodiesterase obstruction rate)",LD50 [2],"inhibition at 0.001 µM [1, 3]","inhibition at 0.01 µM [1, 3]","inhibition at 0.1 µM [1, 3]","inhibition at 1 µM [1, 3]","inhibition at 10 µM [1, 3]"
"CC(=O)OC1CCC(N(C)C(=O)CCCOc2ccc3[nH]c(=O)ccc3c2)CC1 (stereo not drawn) [compound 3, 6-{3-[N-Methyl-N-(4-acetyloxycyclohexyl)aminocarbonyl]propoxy}carbostyril]",98.5%,95.5%,88.4%,61.1%,13.4%,> 1000 mg/kg,,,,,
"CN(C(=O)CCCOc1ccc2[nH]c(=O)ccc2c1)C1CCCCC1 [compound 16, 6-[3-(N-Methyl-N-cyclohexylaminocarbonyl)propoxy]carbostyril]",,,,,,> 1000 mg/kg,7.1%,22.3%,79.3%,87.5%,80.5%
